Columns and labels:
[1] = system: encephalitogenic BP10 T-cell line; assay: Adoptive EAE by BP10 line stimulated in vitro with test substance; type: in vivo, rat
Source text: The ability of a compound to enhance T cell activity may be determined, for example, using an in vivo assay testing the effect of a given compound on the severity of adoptive (passive) EAE, namely, EAE which is induced by the injection of activated encephalitogenic T cell line to the model animal. In order to test a compound, the encephalitogenic T cells are activated in the presence of the compound prior to injection. An exemplary procedure is described in the Examples section hereinbelow.
Antigen-specific T-cell lines were established from lymph node cells that had been stimulated with myelin basic protein (MBP; 10 μg/ml) for 3 days in stimulation medium as described below. Following stimulation, the T-cell blasts were isolated on Lympho-prep (Nycomed Pharma, Oslo, Norway) and seeded in propagation medium. Propagation medium was identical to stimulation medium without autologous serum, but supplemented with fetal calf serum 10% and T-cell growth factors from the supernatant of Con A stimulated spleen cells 10% (Mor et al. (1990) J Clin Invest, 85, 1594-1598). Animals were injected intra-peritoneally with 10^7 MBP-stimulated T cells, following 6-8 cycles of in vitro stimulations. It is known that MBP-reactive lines undergo a reduction in pathogenicity after 6 or more in vitro stimulations. In some experiments the BP10 line was stimulated with phorbol myristate acetate (PMA; 50 ng/ml) and ionomycin (500 ng/ml) for 3 days in stimulation medium, without antigen-presenting cells.
Active EAE was induced by subcutaneous injection of 25 μg guinea-pig MBP (GpMBP) in complete Freund's adjuvant (CFA). CFA was prepared by adding 4 mg/ml Mycobacterium tuberculosis H37Ra (Difco, Mich.) to incomplete Freund's adjuvant (IFA). Adoptive EAE was transferred by intra-peritoneal injection of guinea-pig MBP-activated cells of the BP10 line as described in Mor et al. (1993) J Clin Invest, 92, 2199-2206. […] Clinical scoring was: +1, paralysis of tail; +1.5, paresis of posterior paws and ataxia; +2, paraplegia; +3, paralysis extending to thoracic spine; +4, a moribund state.
Treatment with cefuroxime in vivo could affect many different host agents involved in EAE or AA as well as influencing the rats' bacterial flora. To test whether the antibiotic might directly modify the behavior of effector T cells, an encephalitogenic T-cell line was stimulated in the presence or absence of cefuroxime in vitro. The weakly encephalitogenic BP10 line was used, and was stimulated for 3 days with MBP in the presence or absence of cefuroxime (50 μg/ml). The activated T cells were then washed to remove the antibiotic, the T cells were injected intra-peritoneally into naïve recipient rats (10^7 per rat), and EAE was scored. The BP10 line at later stimulations was used, when its pathogenic potential is reduced, allowing to detect both suppression and enhancement of disease. […] To rule out antigen presenting cells (APC) as the target of the beta-lactam antibiotic, the encephalitogenic BP10 line was stimulated without APC using PMA (50 ng/ml) and Ionomycin (500 ng/ml) in the presence or absence of cefuroxime.

[2] = system: RMA cells (T cell lymphoma of mouse origin); assay: RMA mouse tumor model; type: in vivo
Description: In the RMA mouse tumor model (T cell lymphoma of mouse origin), T cells are known to participate in tumor rejection, and thus augmenting T cell effects might enhance the animal's ability to reject the tumor implant. RMA cells were injected to C57BL/6J Ola Hsd mice (10^5 cells per mouse) (Chen et al. (1994) J Exp Med, 179:523-532). […] Tumor size was measured and recorded.
An additional experiment was carried out in the same experimental system, comparing 6-APA to clavulanic acid.

[3] = Dissolution in aqueous solution; type: physicochemical
NOD mice = assay: Autoimmune diabetes in NOD mice; type: in vivo, mouse; settings: NOD mice at 5.7 months; SC weekly; ampicillin 1300 μg, ceftriaxone 675 μg per mouse
Description: NOD mice spontaneously develop diabetes mellitus similar to type I diabetes in humans. […] The mice were followed for the development of diabetes, marked by blood sugar above 300 mg/dl on 2 measurements.

[4] = system: experimental autoimmune encephalomyelitis (EAE) in rats; assay: Actively induced EAE; type: in vivo, rat; settings: oral in drinking water from day 7 postinduction, daily dose 50 mg/kg, versus two control groups
[5] = target: T1, 67 kDa band in human T-cell lysates (Homo sapiens, UniProt P02768); assay: Radioactive penicillin binding assay; settings: tritium-labeled, 10 and 20 μCi, 3 days with PMA and Ionomycin; CD4 and CD8 T cell lysates
T1 construct: endogenous in cells; host or cells: primary human CD4 or CD8 T cells from peripheral blood of healthy donors
Source text: Tritium labeled benzylpenicillin was obtained from Amersham (Buckinghamshire, UK; 250 μCi, 1 mCi/ml). Human CD4 or CD8 T cells were stimulated in 24 well plates, 5×10^6 cells per ml, with PMA and Ionomycin for 72 hr in the presence of 10 or 20 μCi of labeled penicillin. Following stimulation, the cells were collected, lysed and separated by SDS PAGE. The gels were fixed, treated with 1M sodium salicylate, and dried. The dried gels were exposed to x-ray film (BioMax MS film) for 14 days, with intensifying screen (BioMax TranScreen, Eastman Kodak Co., New Haven Conn., USA), and were developed.
To test whether beta-lactam antibiotics might affect T-cell behavior likewise by covalently binding a key T-cell protein, purified CD4 or CD8 human T cells were incubated with 10 and 20 μCi of tritium-labeled lactam benzylpenicillin (Amersham, Buckinghamshire, UK) for 3 days during stimulation with PMA and Ionomycin. The stimulated T cells were collected, washed, lysed and their proteins were subjected to SDS-PAGE separation. Dried gels were exposed in intensifying screens to Xray film for 2 weeks at −80° C. […] The intensity of the band was stronger at the 20 μCi concentration of penicillin.

human CD3 T cells = assay: Pen 9 western blot of antibiotic-treated human T cells; type: cell-based; settings: human T cells activated by mitogen in presence of the antibiotic
albumin [6] = target: T2, albumin (Rattus norvegicus, UniProt P02770); assay: Pen 9 detection of penicillin-albumin in vivo; settings: Lewis rats, 50 mg/rat intraperitoneally, 2 hours later
T2 construct: from tissue; host or cells: various tissues and serum of Lewis rats
Description: Rat tissues were ground with a tissue grinder in lysis buffer. The homogenate was centrifuged 14000 g for 15 min in 4° C. and the supernatant was used for western blotting. The protein concentration was determined using the Bio-Rad Dc protein assay (Bio-Rad laboratories, Hercules, Calif.). Following electrophoresis in SDS gel in a mini-gel apparatus (Bio-Rad), the gels were electro-transferred to nitrocellulose membranes (Schleicher and schuell, Dassel, Germany). The nitrocellulose membranes were washed with distilled water for 5 min, and then blocked for 60 min. using a blocking solution composed of 2% bovine serum albumin (Fraction V, Sigma, St. Louis Mo.), 2.5% milk powder (Bio-Rad), Tris (Sigma) pH 7.5 10 mM, NaCl 150 mM and 0.02% thimerosal (Sigma). After 3×10 min. washes in PBS/Tween 20 (PBS/T; 0.02%, Sigma), primary antibodies ( 1/1000) were incubated with the membranes in PBS/Tween for 60 min. Following another series of washes in PBS/T (3×10 min), the membranes were incubated with a secondary antibody (Peroxidase conjugated anti rabbit or anti mouse, IgG Jackson ImmunoResearch, West Grove, Calif.) at a 1/2500 dilution in 2% milk in PBS solution for 60 min. After another 3×10 min washes, the membranes were incubated with the ECL reagent (for 60 seconds) and exposed to X-ray film. […]

albumin [7] = assay: Pen 9 western blot of cell lines treated with penicillin; type: cell-based; settings: cell lines raised in vitro
[8] = free penicillin; cited from earlier work
[9] = BP10 line, same doses as penicillin
[10] = 17 days after tumor injection, versus PBS treated and non-injected mice

T1 sequence (P02768 25-609): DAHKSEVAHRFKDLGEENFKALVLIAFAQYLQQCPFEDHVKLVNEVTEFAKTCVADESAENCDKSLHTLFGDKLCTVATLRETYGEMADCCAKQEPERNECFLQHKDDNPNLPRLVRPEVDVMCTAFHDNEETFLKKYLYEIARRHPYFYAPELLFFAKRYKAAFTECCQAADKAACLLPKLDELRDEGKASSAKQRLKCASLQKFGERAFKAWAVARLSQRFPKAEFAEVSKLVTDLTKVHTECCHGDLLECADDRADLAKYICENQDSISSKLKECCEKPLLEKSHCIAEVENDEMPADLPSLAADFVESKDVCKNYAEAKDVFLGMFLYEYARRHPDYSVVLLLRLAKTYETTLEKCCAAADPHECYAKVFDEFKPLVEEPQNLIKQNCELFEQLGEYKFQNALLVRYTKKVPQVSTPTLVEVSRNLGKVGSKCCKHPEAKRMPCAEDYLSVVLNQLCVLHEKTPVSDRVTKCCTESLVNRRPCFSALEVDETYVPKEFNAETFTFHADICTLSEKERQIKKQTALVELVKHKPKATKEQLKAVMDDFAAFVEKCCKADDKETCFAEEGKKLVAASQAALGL

Molecule: CC1(C)S[C@@H]2[C@H](N)C(=O)N2[C@H]1C(=O)O [6-APA, 6-aminopenicillanic acid]
- severity of adoptive EAE [1, 9]: EAE enhancing ability, similar to penicillin
- tumor size [2, 10]: smaller tumors
- tumor size ([2]; C57BL/6J mice, SC 2 μg/mouse 3 times per week, last two measurements, versus control mice): significantly smaller
- solubility in aqueous solution [3]: difficult to dissolve in aqueous solution

Molecule: CO/N=C(\C(=O)N[C@@H]1C(=O)N2C(C(=O)O)=C(CSc3nc(=O)c(=O)[nH]n3C)CS[C@H]12)c1csc(N)n1 [ceftriaxone]
- severity of adoptive EAE ([1]; BP10 line stimulated 3 days with MBP in presence of 50 μg/ml, 10^7 cells IP per rat): enhanced EAE severity
- incidence of diabetes (NOD mice): 60%

Molecule: CO/N=C(\C(=O)N[C@@H]1C(=O)N2C(C(=O)OC(C)OC(C)=O)=C(COC(N)=O)CS[C@H]12)c1ccco1 (stereo partly shown) [cefuroxime axetil]
- severity of actively induced EAE [4]: significantly more severe EAE

Molecule: O=C(O)[C@H]1/C(=C/CO)O[C@@H]2CC(=O)N21 [clavulanic acid]
- severity of adoptive EAE (pathogenicity of BP10 line) ([1]; BP10 line stimulated with 25 μg/ml, 5 rats per group): enhanced the pathogenicity of BP10 line
- tumor size [2, 10]: smaller tumors

Molecule: CC1(C)S[C@@H]2[C@H](NC(=O)Cc3ccccc3)C(=O)N2[C@H]1C(=O)O [penicillin, benzylpenicillin]
- covalent binding to T-cell protein (radioactive band on SDS-PAGE) [5]: single major penicillin-protein radioactive band was detected at 67 kD
- reactivity of Pen 9 antibody with lysates of treated T cells (human CD3 T cells): reacted specifically to a major protein of the penicillin-treated T cells
- 67 kD band (penicilloylated albumin) in tissue lysates (albumin [6]): appears in all tissues examined and is most abundant in serum
- penicillin-modified albumin band in cell line lysates (albumin [7]): could be detected in mesenchymal stem cells, dendritic cells, Jurkat, MOLT4, FAO and CEM lines
- half-life [8]: 42 min

Molecule: C[C@]1(Cn2ccnn2)[C@H](C(=O)O)N2C(=O)C[C@H]2S1(=O)=O [tazobactam]
- severity of adoptive EAE [1, 9]: EAE enhancing ability, similar to penicillin

B1: Penicillin-modified rat albumin: rat albumin modified by penicillin (conjugate, UniProt P02770 25-608, looked up)
Albumin: EAHKSEIAHRFKDLGEQHFKGLVLIAFSQYLQKCPYEEHIKLVQEVTDFAKTCVADENAENCDKSIHTLFGDKLCAIPKLRDNYGELADCCAKQEPERNECFLQHKDDNPNLPPFQRPEAEAMCTSFQENPTSFLGHYLHEVARRHPYFYAPELLYYAEKYNEVLTQCCTESDKAACLTPKLDAVKEKALVAAVRQRMKCSSMQRFGERAFKAWAVARMSQRFPNAEFAEITKLATDVTKINKECCHGDLLECADDRAELAKYMCENQATISSKLQACCDKPVLQKSQCLAEIEHDNIPADLPSIAADFVEDKEVCKNYAEAKDVFLGTFLYEYSRRHPDYSVSLLLRLAKKYEATLEKCCAEGDPPACYGTVLAEFQPLVEEPKNLVKTNCELYEKLGEYGFQNAVLVRYTQKAPQVSTPTLVEAARNLGRVGTKCCTLPEAQRLPCVEDYLSAILNRLCVLHEKTPVSEKVTKCCSGSLVERRPCFSALTVDETYVPKEFKAETFTFHSDICTLPDKEKQIKKQTALAELVKHKPKATEDQLKTVMGDFAQFVDKCCKAADKDNCFATEGPNLVARSKEALA
modifications: penicillin-modified
- severity of adoptive EAE (pathogenicity of BP10 line) ([1]; BP10 line stimulated 3 days with 5 mg/ml in stimulation medium): could also enhance the encephalogenicity of the BP10 line
